Assay results: ChEMBL document CHEMBL1201862, “PubChem BioAssay data set” (2004)
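Cells were grown in 96-well plates and exposed to each compound for 48 hours at five concentrations; endpoints were interpolated linearly between bracketing concentrations, or set to the highest concentration if not reached. The concentration for 50% growth inhibition is given as GI50.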 Active and inactive are the calls of the source. Cut-off read from the data, not from the text of the source: active = GI50 up to about 1.1 µM and inactive = higher.

What was measured:
Assay in all cases: NCI tumour cell line growth inhibition, 48 h
[1] = tested on: SF-539
[2] = tested on: KM12
[3] = tested on: NCI-H226
[4] = tested on: NCI-H522
[5] = tested on: HT-29
[6] = tested on: SK-MEL-28
[7] = tested on: UACC-62
[8] = tested on: TK-10
[9] = tested on: HL-60
[10] = tested on: M14
[11] = tested on: OVCAR-5
[12] = tested on: HCT-116
[13] = tested on: SN12C
[14] = tested on: Malme-3M
[15] = tested on: NCI-H460
[16] = tested on: ACHN
[17] = tested on: CAKI-1
[18] = tested on: HOP-92

Measured: GI50

[Zn+2][N+]12CCN3CCN4CCN(CC1)[PH]432 (centres undefined)
inactive: [1] > 100 µM | [2] > 100 µM | [3] > 100 µM | [4] > 100 µM | [5] > 100 µM | [6] > 100 µM | [7] > 100 µM | [8] > 100 µM | [9] > 100 µM | [10] > 100 µM | [11] > 100 µM | [12] > 100 µM | [13] > 100 µM | [14] > 100 µM | [15] > 100 µM | [16] > 100 µM

COC(=O)/C(=N/NC(=O)C[N+](C)(C)C)C(C(=O)OC)C(=O)C(=O)Nc1ccc(F)cc1 (centres undefined)
inactive: [1] > 100 µM | [2] > 100 µM | [3] > 100 µM | [4] > 100 µM | [5] > 100 µM | [6] > 100 µM | [7] > 100 µM | [8] > 100 µM | [9] > 100 µM | [10] > 100 µM | [11] > 100 µM | [12] > 100 µM | [13] > 100 µM | [14] > 100 µM | [17] > 100 µM | [15] > 100 µM | [16] > 100 µM

COC(=O)c1ccc(C(=O)OC)c2nc3cc(C)ccc3nc12
inactive: [18] > 100 µM | [1] > 100 µM | [2] > 100 µM | [3] 51.1 µM | [5] > 100 µM | [6] > 100 µM | [7] > 100 µM | [8] > 100 µM | [9] > 100 µM | [10] > 100 µM | [11] > 100 µM | [13] > 100 µM | [14] > 100 µM | [17] > 100 µM | [15] > 100 µM | [16] > 100 µM

CC1CC(c2ccccc2)=Nc2ccccc2S1(=O)=O (centres undefined)
inactive: [18] 27.9 µM | [1] 18.4 µM | [2] 16.3 µM | [4] 17.3 µM | [6] 16.3 µM | [7] 20.5 µM | [8] 23 µM | [9] 21 µM | [10] 20.7 µM | [11] 18.6 µM | [12] 1.75 µM | [13] 16.6 µM | [14] 17.9 µM | [17] 22 µM | [15] 16.3 µM | [16] 16 µM

COC(=O)/C(=N\NC(N)=O)C(C(=O)C=C(C)C)C(=O)C(=O)Nc1ccc(Cl)c(Cl)c1 (centres undefined)
inactive: [1] > 100 µM | [2] > 100 µM | [3] > 100 µM | [4] > 100 µM | [5] > 100 µM | [6] > 100 µM | [7] > 100 µM | [8] > 100 µM | [9] > 100 µM | [10] > 100 µM | [11] > 100 µM | [12] > 100 µM | [13] > 100 µM | [14] > 100 µM | [17] > 100 µM | [15] > 100 µM | [16] > 100 µM

CCCCCC(=O)OCCOCCOCCOCCOCCOCc1ccccc1
inactive: [18] > 100 µM | [1] > 100 µM | [2] > 100 µM | [3] > 100 µM | [6] > 100 µM | [7] > 100 µM | [8] > 100 µM | [11] > 100 µM | [12] > 100 µM | [13] > 100 µM | [14] > 100 µM | [17] > 100 µM | [15] > 100 µM | [16] > 100 µM

CC(C)N1C(C)[C@@H](c2ccccc2)O[P@]1(=O)CC1=CCCCC1 (some centres undefined)
inactive: [18] 42.2 µM | [1] > 100 µM | [2] > 100 µM | [3] > 100 µM | [4] 97.5 µM | [5] > 100 µM | [6] > 100 µM | [7] 51.5 µM | [8] > 100 µM | [9] 22.4 µM | [10] 97.5 µM | [11] 88.5 µM | [12] > 100 µM | [13] > 100 µM | [14] > 100 µM | [15] 87.1 µM | [16] > 100 µM

c1ccc2c(c1)Sc1ccccc1N2C1CN2CCC1CC2 (centres undefined)
inactive: [1] 14 µM | [2] 15.2 µM | [3] 4.09 µM | [4] 18.8 µM | [5] 17.3 µM | [6] 15.8 µM | [7] 15.2 µM | [8] 14 µM | [9] 14.9 µM | [11] > 10 µM | [12] 15.5 µM | [13] 14.2 µM | [14] 16.3 µM | [17] 17.2 µM | [15] 16.1 µM | [16] 16.9 µM
